pKi: −log10 of the molar value. Some results are limits rather than exact numbers.

For this assay, the target named is T1, human vasopressin V1b receptor (Homo sapiens, UniProt P47901).
T1 construct: expressed in transfected cells; host or cells: CHO-K1 (cell line hV1b-3H2_CHO), membrane preparation
T1 sequence (P47901 1-424): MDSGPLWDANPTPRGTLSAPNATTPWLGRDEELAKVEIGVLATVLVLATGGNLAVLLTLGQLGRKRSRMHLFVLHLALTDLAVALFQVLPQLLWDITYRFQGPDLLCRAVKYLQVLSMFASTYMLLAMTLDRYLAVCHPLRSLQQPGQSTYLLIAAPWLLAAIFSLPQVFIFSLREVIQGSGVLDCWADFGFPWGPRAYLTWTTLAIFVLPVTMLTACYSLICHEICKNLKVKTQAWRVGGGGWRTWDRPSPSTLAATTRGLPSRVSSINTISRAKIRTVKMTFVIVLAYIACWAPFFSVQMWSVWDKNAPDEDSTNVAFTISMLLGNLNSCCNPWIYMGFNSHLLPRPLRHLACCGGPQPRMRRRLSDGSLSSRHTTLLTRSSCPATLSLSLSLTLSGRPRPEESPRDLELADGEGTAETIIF
The assay can be described thus: Vasopressin V1b receptor binding assay. The following applies: membranes from CHO-K1 cells with stably expressed human V1b receptors, 1.5 nM 3H-AVP displacement; with more than one stereogenic center: the diastereomer with stronger affinity. The method, then: Such compounds can be investigated in suitable assays which establish the affinity to a receptor, with the affinity constant Ki represening a measure of the potency of the compounds and a smaller value representing a larger potency. The compounds of the invention were tested in the following receptor binding assay for their affinity for the V1 b receptor.
Vasopressin V1 b Receptor Binding Assay:
The test substances were dissolved in a concentration of 10^−2 M in DMSO (dimethyl sulfoxide) and further diluted to 5×10^−4 M to 5×10^−9 M in DMSO. This series of DMSO predilutions was diluted 1:10 with assay buffer. The substance concentration was again diluted 1:5 in the assay mixture (2% DMSO in the mixture).
The membrane pellet was again homogenized and centrifuged as described and then taken up in 50 mM Tris-HCl, pH 7.4, homogenized and stored in aliquots frozen in liquid nitrogen at −190° C.
The incubation buffer was: 50 mM Tris, 10 mM MgCl2, 0.1% BSA, pH 7.4.
The nonspecific binding was determined with 1 μM AVP (Bachem #H1780). All determinations were carried out as triplicate determinations. After incubation (60 minutes at room temperature), the free radioligand was removed by vacuum filtration (Skatron cell harvester 7000) through Whatman GF/B glass fiber filter mats, and the filters were transferred into scintillation vials. The liquid scintillation measurement took place in a Tricarb model 2000 or 2200CA instrument (Packard). Conversion of the measured cpm into dpm was carried out with the aid of a standard quench series.
The binding parameters were calculated by nonlinear regression in SAS.
The above assay was used to measure the affinities of the compounds of the invention for the human vasopressin V1 b receptor and to determine with affinity constants (Ki).
The compound `COc1ncccc1C1(N2CCN(c3ccncc3)CC2)C(=O)N(S(=O)(=O)c2cccc3cccnc23)c2ccc(Cl)cc21` (racemic) [Example 42, (±)-5-Chloro-3-(2-methoxypyridin-3-yl)-3-(4-pyridin-4-ylpiperazin-1-yl)-1-(quinoline-8-sulfonyl)-1,3-dihydroindol-2-one] gave a pKi of 7.30 to 8.00.

`CCOc1ccccc1C1(N2CCN(c3ccncc3)CC2C)C(=O)N(S(=O)(=O)c2cccc3cccnc23)c2ccc(C#N)cc21` (racemic) [Example 6, (±)-5-Cyano-3-(2-ethoxyphenyl)-3-(2-methyl-4-pyridin-4-ylpiperazin-1-yl)-1-(quinoline-8-sulfonyl)-2,3-dihydro-1H-indol-2-one] had a pKi of more than 8.00.

Take `CCOc1nc(Cl)ccc1C1(N2CCN(c3ccncc3)CC2)C(=O)N(S(=O)(=O)c2cccc3c(C)ccnc23)c2ccc(C#N)cc21` (racemic) [Example 30, (±)-5-Cyano-3-(6-chloro-2-ethoxypyridin-3-yl)-1-(4-methylquinoline-8-sulfonyl)-3-(4-pyridin-4-ylpiperazin-1-yl)-2,3-dihydro-1H-indol-2-one]: the negative logarithm of the Ki (pKi) is 7.30 to 8.00.

In turn, `CCOc1ccc(OC)cc1C1(N2CCC(N3CCNCC3)CC2)C(=O)N(S(=O)(=O)c2ccc(OC)cn2)c2ccc(C#N)cc21` (single isomer, unassigned; (+)) [Example 156, (+)-5-Cyano-3-(2-ethoxy-5-methoxy-phenyl)-1-(5-methoxy-pyridine-2-sulfonyl)-3-(4-piperazin-1-yl-piperidin-1-yl)-2,3-dihydro-1H-indol-2-one] gave a pKi of 7.30 to 8.00.

Compound `CCOc1ccc(OC)cc1C1(N2CCN(c3ccncc3)CC2)C(=O)N(S(=O)(=O)c2ccc(F)c3cccnc23)c2ccc(C#N)cc21` (racemic) [Example 81, (±)-5-Cyano-3-(2-ethoxy-5-methoxyphenyl)-1-(5-fluoroquinoline-8-sulfonyl)-3-(4-pyridin-4-ylpiperazin-1-yl)-2,3-dihydro-1H-indol-2-one] showed a pKi of more than 8.00.

As to `CCOc1nc(Cl)ccc1C1(N2CCCN(c3ccnc(C)c3)CC2)C(=O)N(S(=O)(=O)c2ccc(OC)cn2)c2ccc(C#N)cc21` (racemic) [Example 177, (±)-5-Cyano-3-(6-chloro-2-ethoxy-pyridin-3-yl)-1-(5-methoxy-pyridine-2-sulfonyl)-3-[4-(2-methyl-pyridin-4-yl)-[1,4]diazepan-1-yl]-2,3-dihydro-1H-indol-2-one], the pKi was more than 8.00.

With `CCOc1ccc(OC)cc1C1(N2CCN(C3CCN(C)CC3)CC2)C(=O)N(S(=O)(=O)c2ccc(OC)c3cccnc23)c2ccc(C#N)cc21` (racemic) [Example 161, (±)-5-Cyano-3-(2-ethoxy-5-methoxy-phenyl)-1-(5-methoxy-quinoline-8-sulfonyl)-3-[4-(1-methyl-piperidin-4-yl)-piperazin-1-yl]-2,3-dihydro-1H-indol-2-one], the pKi was more than 8.00.

`CCOc1nc(Cl)ccc1C1(N2CCC(N3CCN(C)CC3)CC2)C(=O)N(S(=O)(=O)c2ccc(OC)cn2)c2ccc(C#N)cc21` (racemic) [Example 170, (±)-5-Cyano-3-(6-chloro-2-ethoxy-pyridin-3-yl)-1-(5-methoxy-pyridine-2-sulfonyl)-3-[4-(4-methyl-piperazin-1-yl)-piperidin-1-yl]-2,3-dihydro-1H-indol-2-one]: the pKi was more than 8.00.

For `O=C1N(S(=O)(=O)c2cccc3cccnc23)c2ccc(Cl)cc2C1(c1ccccn1)N1CCN(c2ccncc2)CC1` (racemic) [Example 8, (±)-5-Chloro-3-pyridin-2-yl-3-(4-pyridin-4-ylpiperazin-1-yl)-1-(quinoline-8-sulfonyl)-1,3-dihydroindol-2-one], the negative-log Ki (pKi) was 7.30 to 8.00.

Take `CCOc1ccc(OC)cc1C1(N2CCN(c3ccnc(C)c3)CC2)C(=O)N(S(=O)(=O)c2ccc(OC)cn2)c2ccc(C#N)cc21` (racemic) [Example 35, (±)-5-Cyano-3-(2-ethoxy-5-methoxyphenyl)-1-(5-methoxypyridine-2-sulfonyl)-3-[4-(2-methylpyridin-4-yl)piperazin-1-yl]-2,3-dihydro-1H-indol-2-one]: the pKi was more than 8.00.

Consider “(±)-5-Cyano-3-(6-chloro-2-ethoxypyridin-3-yl)-1-(2,4-dimethoxybenzenesulfonyl)-3-[4-(2-methylpyridin-4-yl)piperazin-1-yl]-2,3-dihydro-1H-indol-2-one [Example 28]”, for which the negative logarithm of the Ki (pKi) was 7.30 to 8.00.

The compound `CCOc1ccc(OC)cc1C1(N2CCCN(c3ccnc(C)c3)CC2)C(=O)N(S(=O)(=O)c2ccc(OC)c3cccnc23)c2ccc(C#N)cc21` (racemic) [Example 73, (±)-5-Cyano-3-(2-ethoxy-5-methoxyphenyl)-1-(5-methoxyquinoline-8-sulfonyl)-3-[4-(2-methylpyridin-4-yl)-[1,4]diazepan-1-yl]-2,3-dihydro-1H-indol-2-one] had a pKi of more than 8.00.

`CCOc1ccccc1C1(N2CCN(C3CCN(C)CC3)CC2)C(=O)N(S(=O)(=O)c2ccc(OC)cn2)c2ccc(C#N)cc21` (racemic) [Example 83, (±)-5-Cyano-3-(2-ethoxyphenyl)-1-(5-methoxypyridine-2-sulfonyl)-3-[4-(1-methyl-piperidin-4-yl)piperazin-1-yl]-2,3-dihydro-1H-indol-2-one] had a pKi of 7.30 to 8.00.

For the compound `CCOc1c(OC)cccc1C1(N2CCN(c3ccnc(C)c3)CC2)C(=O)N(S(=O)(=O)c2ccc(OC)cn2)c2ccc(C#N)cc21` (racemic) [Example 179, (±)-5-Cyano-3-(2-ethoxy-3-methoxy-phenyl)-1-(5-methoxy-pyridine-2-sulfonyl)-3-[4-(2-methyl-pyridin-4-yl)-piperazin-1-yl]-2,3-dihydro-1H-indol-2-one], the negative-log Ki (pKi) is more than 8.00.

For `CCOc1ccccc1C1(N2CCN(c3ccnc(C(C)C)c3)CC2)C(=O)N(S(=O)(=O)c2ccc(OC)cn2)c2ccc(C#N)cc21` (racemic) [Example 150, (±)-5-Cyano-3-(2-ethoxy-phenyl)-3-[4-(2-isopropyl-pyridin-4-yl)-piperazin-1-yl]-1-(5-methoxy-pyridine-2-sulfonyl)-2,3-dihydro-1H-indol-2-one], the pKi was 7.30 to 8.00.

With `CCOc1ccccc1C1(N2CCN(c3ccnc(C)c3)CC2)C(=O)N(S(=O)(=O)c2ccc(OC)cn2)c2ccc(C#N)cc21` (racemic) [Example 79, (±)-5-Cyano-3-(2-ethoxyphenyl)-1-(5-methoxypyridine-2-sulfonyl)-3-[4-(2-methyl-pyridin-4-yl)piperazin-1-yl]-2,3-dihydro-1H-indol-2-one], the pKi is more than 8.00.

In turn, `CCOc1ccc(OC)cc1C1(N2CCN(c3ccnc(C(C)C)c3)CC2)C(=O)N(S(=O)(=O)c2ccc(OC)cn2)c2ccc(C#N)cc21` (single isomer, unassigned; (+)) [Example 143, (+)-5-Cyano-3-(2-ethoxy-5-methoxy-phenyl)-3-[4-(2-isopropyl-pyridin-4-yl)-piperazin-1-yl]-1-(5-methoxy-pyridine-2-sulfonyl)-2,3-dihydro-1H-indol-2-one] had a pKi of more than 8.00.

`CCOc1cc(OC)ccc1C1(N2CCN(c3ccnc(C(C)C)c3)CC2)C(=O)N(S(=O)(=O)c2ccc(OC)cn2)c2ccc(C#N)cc21` (racemic) [Example 175, (±)-5-Cyano-3-(2-ethoxy-4-methoxy-phenyl)-3-[4-(2-isopropyl-pyridin-4-yl)-piperazin-1-yl]-1-(5-methoxy-pyridine-2-sulfonyl)-2,3-dihydro-1H-indol-2-one]: the pKi was more than 8.00.

By pKi is commonly meant the negative decadic logarithm of the Ki, by convention in mol/L. A high value points to a low Ki.

For the origin of these results see patent US8486931B2, “Substituted oxindole compounds” (Abbott GmbH & Co. KG, priority 2007, dated 2013).
